Tested on: Plasmodium berghei
Assay: Luciferase/luciferin-expressing antifolate-resistant parasites were used to infect a culture of HepG2 cells that were pre-incubated with compounds. Infected hepatocytes emit light due to the luciferase reaction. Assay results are presented as the percent inhibition of light emission compared to control. […]
Type: functional
Conditions: sporozoite; for IC90: read-out: LUCIFERASE INFECTION ASSAY - IC90
[1] = read-out: LUCIFERASE INFECTION ASSAY - IC50

| SMILES | IC90 | IC50 [1] | further results |
| --- | --- | --- | --- |
| COc1ccc(NC(=O)c2cccc(S(=O)(=O)N(Cc3ccccc3)c3ccccc3Cl)c2)cn1 | > 10 µM |  | IC50 (PBLUC_HILL_SLOPE 11, PBLUC_R_SQUARED 0.0841, read-out: LUCIFERASE INFECTION ASSAY - IC50): 9.79 µM |
| NC(=S)CCOC1CCN(Cc2ccccc2)CC1 | > 11.9 µM | > 11.9 µM |  |
| COCCOc1ccc(C(F)(F)F)cc1NC(=O)COc1ccc2ccc(=O)oc2c1 | > 10 µM | > 10 µM |  |
| CC(Nc1ncnc2ccsc12)c1cccc2ccccc12 (stereo unspecified) | > 10 µM | 2.13 µM |  |
| O=c1c(Cl)c(Cl)cnn1-c1ccc(F)c(Cl)c1 | 4.35 µM |  | IC50 (HEPG2TOX_HILL_SLOPE 3.48, HEPG2TOX_R_SQUARED 0.867, PBLUC_HILL_SLOPE 16.6, PBLUC_R_SQUARED 0.498, read-out: LUCIFERASE INFECTION ASSAY - IC50): 3.81 µM |
| COc1ccc2[nH]c3c(NCCC4=CCCCC4)ncnc3c2c1 | 5.19 µM |  | IC50 (HEPG2TOX_HILL_SLOPE 2.01, HEPG2TOX_R_SQUARED 0.344, PBLUC_HILL_SLOPE 1.69, PBLUC_R_SQUARED 0.738, read-out: LUCIFERASE INFECTION ASSAY - IC50): 1.42 µM |
| CC12CCC(C(=O)N3CCN(c4cccc(Cl)c4)CC3)(OC1=O)C2(C)C (stereo unspecified) | > 8.76 µM |  | IC50 (PBLUC_HILL_SLOPE 1.72, PBLUC_R_SQUARED 0.0862, read-out: LUCIFERASE INFECTION ASSAY - IC50): > 8.76 µM |
| O=c1c(Cl)c(Cl)cnn1Cc1nc2cc(Cl)ccc2n1Cc1ccccc1 | > 10 µM |  | IC50 (FFLUC_HILL_SLOPE 21.9, FFLUC_R_SQUARED 0.587, HEPG2TOX_HILL_SLOPE 12.6, HEPG2TOX_R_SQUARED 0.77, read-out: LUCIFERASE INFECTION ASSAY - IC50): > 10 µM |
| CC(C)CC(=O)NNc1ccnc2cc(Cl)ccc12 | 4.29 µM |  | IC50 (HEPG2TOX_HILL_SLOPE 0.439, HEPG2TOX_R_SQUARED 0.287, PBLUC_HILL_SLOPE 11, PBLUC_R_SQUARED 0.716, read-out: LUCIFERASE INFECTION ASSAY - IC50): 3.51 µM |
| CN1/C(=C/C=C2c3ccccc3-c3ccccc32)C=Cc2ccccc21 | > 9.9 µM |  | IC50 (PBLUC_HILL_SLOPE 1.22, PBLUC_R_SQUARED 0.219, read-out: LUCIFERASE INFECTION ASSAY - IC50): 8.03 µM |
| CNc1cc(CSCc2ccc(Cl)cc2)nc(-c2ccccc2)n1 | > 9.27 µM | > 9.27 µM |  |
| O=C(NCCCn1cnc2ccccc21)c1[nH]nc2ccccc12 | > 10 µM |  | IC50 (HEPG2TOX_HILL_SLOPE 14.9, HEPG2TOX_R_SQUARED 0.872, PBLUC_HILL_SLOPE 4.15, PBLUC_R_SQUARED 0.429, read-out: LUCIFERASE INFECTION ASSAY - IC50): 6.32 µM |
| Cc1ccnc(NC(=O)C2CC(=O)N(c3ccc(C)c(C)c3)C2)c1 (stereo unspecified) | 4.04 µM |  | IC50 (HEPG2TOX_HILL_SLOPE 1.86, HEPG2TOX_R_SQUARED 0.878, PBLUC_HILL_SLOPE 11.1, PBLUC_R_SQUARED 0.462, read-out: LUCIFERASE INFECTION ASSAY - IC50): 3.31 µM |
| COc1ccc(-c2cnc3ccc(-c4cccc(Cl)c4)nn23)cc1OC | 5.25 µM |  | IC50 (FFLUC_HILL_SLOPE 18.1, FFLUC_R_SQUARED 0.385, HEPG2TOX_HILL_SLOPE 1.42, HEPG2TOX_R_SQUARED 0.94, PBLUC_HILL_SLOPE 1.13, PBLUC_R_SQUARED 0.747, read-out: LUCIFERASE INFECTION ASSAY - IC50): 0.748 µM |
| O=S(=O)(c1cccs1)n1ccc(-c2ccc3c(c2)CCO3)n1 | > 9.93 µM | > 9.93 µM |  |
| O=C(Cn1ncc(Cl)c(Cl)c1=O)NCC(=O)Nc1ccc(F)c(F)c1F | 6.18 µM |  | IC50 (HEPG2TOX_HILL_SLOPE 18.2, HEPG2TOX_R_SQUARED 0.93, PBLUC_HILL_SLOPE 2.22, PBLUC_R_SQUARED 0.782, read-out: LUCIFERASE INFECTION ASSAY - IC50): 2.3 µM |
| CN(C)C1(CNC(=O)c2ccc(Cl)c(S(=O)(=O)N(C)c3ccc(Cl)cc3)c2)CCCCC1 | > 10 µM |  | IC50 (PBLUC_HILL_SLOPE 3.05, PBLUC_R_SQUARED 0.312, read-out: LUCIFERASE INFECTION ASSAY - IC50): 8.97 µM |
| CN(C(=O)c1cc(-c2ccccc2OCc2ccccc2)ncn1)c1ccccc1 | 5 µM |  | IC50 (HEPG2TOX_HILL_SLOPE 0.0237, HEPG2TOX_R_SQUARED 0.016, PBLUC_HILL_SLOPE 4.42, PBLUC_R_SQUARED 0.717, read-out: LUCIFERASE INFECTION ASSAY - IC50): 3.04 µM |
| CC(NC(=O)c1ccc(S(=O)(=O)C(F)F)cc1)C12CC3CC(CC(C3)C1)C2 (stereo unspecified) | > 10 µM | > 10 µM |  |
| OCc1cccc(-c2cnc3ccc(-c4ccccc4)nn23)c1 | 7.66 µM |  | IC50 (HEPG2TOX_HILL_SLOPE 3.47, HEPG2TOX_R_SQUARED 0.7, PBLUC_HILL_SLOPE 5.19, PBLUC_R_SQUARED 0.0412, read-out: LUCIFERASE INFECTION ASSAY - IC50): 5.02 µM |
| Cc1ccc(C(=O)c2sc(Nc3ccc(F)cc3)c(-c3nnc(N4CCOCC4)n3-c3ccccc3)c2N)cc1C | > 10 µM |  | IC50 (HEPG2TOX_HILL_SLOPE 7.05, HEPG2TOX_R_SQUARED 0.741, PBLUC_HILL_SLOPE 9.57, PBLUC_R_SQUARED 0.198, read-out: LUCIFERASE INFECTION ASSAY - IC50): 8.84 µM |
| CC(C)Cn1c(N)c(C(=O)COC(=O)c2cc(-c3cccs3)nc3ccccc23)c(=O)n(C)c1=O | 3.23 µM |  | IC50 (FFLUC_HILL_SLOPE 33.5, FFLUC_R_SQUARED 0.479, PBLUC_HILL_SLOPE 4.72, PBLUC_R_SQUARED 0.427, read-out: LUCIFERASE INFECTION ASSAY - IC50): 2.03 µM |

| SMILES | IC90 | IC50 [1] | further results |
| --- | --- | --- | --- |
| O=C(c1c[nH]nc1-c1ccccc1)N1CCN(S(=O)(=O)c2ccccc2)CC1 | > 10 µM | > 10 µM |  |
| Cc1oc2c(c1C(=O)N1CCN(c3ccc(F)cc3)CC1)C(=O)c1ccccc1C2=O | > 10 µM |  | IC50 (PBLUC_HILL_SLOPE 2.38, PBLUC_R_SQUARED 0.395, read-out: LUCIFERASE INFECTION ASSAY - IC50): 4.13 µM |
| O=c1c(-c2cccc(Cl)c2)c[nH]n1-c1cccc(C(F)(F)F)c1 | > 9.74 µM |  | IC50 (HEPG2TOX_HILL_SLOPE 3.35, HEPG2TOX_R_SQUARED 0.846, PBLUC_HILL_SLOPE 3.63, PBLUC_R_SQUARED 0.619, read-out: LUCIFERASE INFECTION ASSAY - IC50): 5.69 µM |
| Cc1nn2c(=O)c(Cc3ccccc3Cl)c(C)[nH]c2c1-c1ccccc1 | 2.97 µM | 2.68 µM |  |
| COc1ccc(S(=O)(=O)N2CCc3ccccc32)cc1C(=O)NOCc1ccccc1 | > 10 µM | > 10 µM |  |
| Cc1cc(OCCN(C)C)cc2c1C1CCC3(C)C(=O)CCC3C1C=C2 (stereo unspecified) | > 9.34 µM |  | IC50 (FFLUC_HILL_SLOPE 6.52, FFLUC_R_SQUARED 0.182, PBLUC_HILL_SLOPE 2.32, PBLUC_R_SQUARED 0.511, read-out: LUCIFERASE INFECTION ASSAY - IC50): 5.67 µM |
| O=C(c1cccc2ccccc12)N(c1ccc(F)cc1)c1nc2ccccc2s1 | > 10 µM |  | IC50 (PBLUC_HILL_SLOPE 22.2, PBLUC_R_SQUARED 0.211, read-out: LUCIFERASE INFECTION ASSAY - IC50): 9.18 µM |
| COCCCNC(=O)Cc1ccc(S(=O)(=O)N2CCOCC2)s1 | > 10 µM | > 10 µM |  |
| CNC(=O)c1ccc(CN(Cc2ccco2)Cc2cccc3cccnc23)cc1 | > 10 µM | > 10 µM |  |
| Cc1ccc(-c2cnc3ccc(NCc4cccs4)nn23)cc1 | > 10.3 µM |  | IC50 (PBLUC_HILL_SLOPE 1.88, PBLUC_R_SQUARED 0.642, read-out: LUCIFERASE INFECTION ASSAY - IC50): 4.8 µM |
| Cc1nc2nc(C(F)(F)F)nn2c(C)c1CCC(=O)N1CCCC1c1ccc2c(c1)OCCCO2 (stereo unspecified) | 8.93 µM |  | IC50 (PBLUC_HILL_SLOPE 2.87, PBLUC_R_SQUARED 0.605, read-out: LUCIFERASE INFECTION ASSAY - IC50): 4.15 µM |
| O=S(=O)(Nc1nn(Cc2ccc(C(F)(F)F)cc2)c2ccccc12)c1cccc2nsnc12 | > 6.74 µM | > 6.74 µM |  |
| O=C(Nc1ccc(F)c(Cl)c1)c1ccc(F)c(Cl)c1 | > 10.9 µM | > 10.9 µM |  |
| CCc1c(C)sc2nc(SCC3COc4ccccc4O3)n(-c3ccc(O)cc3C)c(=O)c12 (stereo unspecified) | > 10 µM |  | IC50 (FFLUC_HILL_SLOPE 1.97, FFLUC_R_SQUARED 0.841, read-out: LUCIFERASE INFECTION ASSAY - IC50): > 10 µM |
| O=C1CSC(=N/N=C2\SC(CC(=O)Nc3ccc(Br)cc3)C(=O)N2Cc2ccco2)N1 (stereo unspecified) | > 10 µM |  | IC50 (HEPG2TOX_HILL_SLOPE 1.67, HEPG2TOX_R_SQUARED 0.878, PBLUC_HILL_SLOPE 0.95, PBLUC_R_SQUARED 0.607, read-out: LUCIFERASE INFECTION ASSAY - IC50): 5.04 µM |
| OC(CNCCc1ccc(Cl)cc1Cl)COc1ccccc1 (stereo unspecified) | > 10 µM | > 10 µM |  |
| C=CCn1c[n+](C2=C(NS(=O)(=O)c3ccc(C)cc3)C(=O)c3ccccc3C2=O)c2ccccc21 | 1.26 µM |  | IC50 (PBLUC_HILL_SLOPE 2.18, PBLUC_R_SQUARED 0.79, read-out: LUCIFERASE INFECTION ASSAY - IC50): 0.462 µM |
| CC(C)n1c(Sc2ncc([N+](=O)[O-])s2)nc2cc(C(F)(F)F)ccc21 | 6.15 µM |  | IC50 (FFLUC_HILL_SLOPE 0.818, FFLUC_R_SQUARED 0.623, HEPG2TOX_HILL_SLOPE 9.88, HEPG2TOX_R_SQUARED 0.799, PBLUC_HILL_SLOPE 37.4, PBLUC_R_SQUARED 0.0575, read-out: LUCIFERASE INFECTION ASSAY - IC50): 5.8 µM |
| COc1cc2[nH]c(C(=O)Nc3cccc(C(F)(F)F)c3)cc2c(OC)c1OC | 8.28 µM | 7.63 µM |  |
| O=C(CSc1nnc(-c2ccccc2)[nH]1)N1c2ccccc2OCC1c1ccccc1 (stereo unspecified) | > 10 µM |  | IC50 (PBLUC_HILL_SLOPE 11.0, 1.31, PBLUC_R_SQUARED 0.138, 0.609, read-out: LUCIFERASE INFECTION ASSAY - IC50): 6.33 µM |
| CCOC(=O)c1cnc(NNC(=O)c2ccc(Cl)cc2Cl)nc1C(F)(F)F | > 7.8 µM | > 7.8 µM |  |
